From US20050222200A1, “AMIDE DERIVATIVES AS ION CHANNEL LIGANDS AND PHARMACEUTICAL COMPOSITIONS AND METHODS OF USING THE SAME” (Renovis, Inc., priority 2003, published 2005)

These molecules were tested against T1, VR1 (Homo sapiens, UniProt Q8NER1) (assay: High throughput calcium imaging assay of VR1 antagonists (Fura2, Flex Station, 96 well)). Conditions: Table 1 activity class.
T1 construct: expressed in transfected cells; host or cells: 293 cells ("293 neurons" [sic])
Type: cell-based

T1 sequence (Q8NER1 whole entry, species assumed): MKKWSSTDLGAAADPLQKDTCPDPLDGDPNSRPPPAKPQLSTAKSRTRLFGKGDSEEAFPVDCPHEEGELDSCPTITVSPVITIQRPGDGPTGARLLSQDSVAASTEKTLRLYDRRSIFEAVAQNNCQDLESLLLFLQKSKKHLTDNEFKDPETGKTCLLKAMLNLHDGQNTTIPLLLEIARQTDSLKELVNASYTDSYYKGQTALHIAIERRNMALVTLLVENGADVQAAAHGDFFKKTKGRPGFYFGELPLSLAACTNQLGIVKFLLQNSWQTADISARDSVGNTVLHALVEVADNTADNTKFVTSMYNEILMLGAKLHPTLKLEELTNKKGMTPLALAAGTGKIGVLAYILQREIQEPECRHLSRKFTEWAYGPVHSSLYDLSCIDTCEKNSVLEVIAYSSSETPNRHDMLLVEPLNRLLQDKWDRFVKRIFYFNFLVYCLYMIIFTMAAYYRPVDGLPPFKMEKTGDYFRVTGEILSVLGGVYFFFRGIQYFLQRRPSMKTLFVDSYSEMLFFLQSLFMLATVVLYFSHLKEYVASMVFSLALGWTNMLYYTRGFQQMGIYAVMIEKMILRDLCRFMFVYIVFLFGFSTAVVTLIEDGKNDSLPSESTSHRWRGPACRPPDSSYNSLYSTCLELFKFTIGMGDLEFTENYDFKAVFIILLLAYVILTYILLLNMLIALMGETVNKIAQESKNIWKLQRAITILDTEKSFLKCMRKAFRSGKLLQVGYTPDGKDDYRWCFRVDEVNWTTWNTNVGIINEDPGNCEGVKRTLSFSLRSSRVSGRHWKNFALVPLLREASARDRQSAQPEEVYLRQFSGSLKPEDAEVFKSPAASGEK

SMILES | inhibition of calcium ion influx induced by capsaicin stimulation
CC(C)/C=C/c1ccc(C(=O)NCCN2CCOCC2)cc1 [Compound 112] | ++ (compound exhibited 25-50% inhibition of calcium ion influx induced by capsaicin stimulation)
CCC/C=C/c1ccc(C(=O)NCc2ccc3c(c2)OCO3)cc1 [Compound 208] | + (compound exhibited 0-25% inhibition of calcium ion influx induced by capsaicin stimulation)
CC(C)(C)/C=C/c1ccc(C(=O)Nc2ccc3[nH]ccc3c2)cc1 [Compound 66] | ++ (compound exhibited 25-50% inhibition of calcium ion influx induced by capsaicin stimulation)
CC(C)/C=C/c1ccc(C(=O)Nc2ccc(Cl)nc2)cc1 [Compound 166] | + (compound exhibited 0-25% inhibition of calcium ion influx induced by capsaicin stimulation)
CC(C)(C)/C=C/c1ccc(C(=O)NCCc2ccc(S(C)(=O)=O)cc2)cc1 [Compound 20] | + (compound exhibited 0-25% inhibition of calcium ion influx induced by capsaicin stimulation)
CC(C)(C)/C=C/c1ccc(C(=O)Nc2cccnc2)cc1 [Compound 53] | ++++ (compound exhibited 75% or greater inhibition of calcium ion influx induced by capsaicin stimulation)
CN(C)c1ccc(CNC(=O)c2ccc(/C=C/C(C)(C)C)cc2)cc1 [Compound 81] | + (compound exhibited 0-25% inhibition of calcium ion influx induced by capsaicin stimulation)
CC(C)/C=C/c1ccc(C(=O)Nc2ccc(Cl)c(C(F)(F)F)c2)cc1 [Compound 148] | + (compound exhibited 0-25% inhibition of calcium ion influx induced by capsaicin stimulation)
CCC/C=C/c1ccc(C(=O)NCc2ccccn2)cc1 [Compound 216] | + (compound exhibited 0-25% inhibition of calcium ion influx induced by capsaicin stimulation)
CC(C)(C)/C=C/c1ccc(C(=O)Nc2ccc(Br)cn2)cc1 [Compound 69] | + (compound exhibited 0-25% inhibition of calcium ion influx induced by capsaicin stimulation)
Cc1nccc(NC(=O)c2ccc(/C=C/C(C)(C)C)cc2)n1 [Compound 77] | + (compound exhibited 0-25% inhibition of calcium ion influx induced by capsaicin stimulation)
CC(C)/C=C/c1ccc(C(=O)NCCN2CCNCC2)cc1 [Compound 125] | ++++ (compound exhibited 75% or greater inhibition of calcium ion influx induced by capsaicin stimulation)
CC(C)/C=C/c1ccc(C(=O)NCc2ccc3c(c2)OCO3)cc1 [Compound 111] | +++ (compound exhibited 50-75% inhibition of calcium ion influx induced by capsaicin stimulation)
CCC/C=C/c1ccc(C(=O)Nc2ccc(N(CC)CC)cc2)cc1 [Compound 227] | + (compound exhibited 0-25% inhibition of calcium ion influx induced by capsaicin stimulation)
COc1ccc(CCNC(=O)c2ccc(/C=C/C(C)C)cc2)cc1OC [Compound 121] | +++ (compound exhibited 50-75% inhibition of calcium ion influx induced by capsaicin stimulation)
COc1ccc(CNC(=O)c2ccc(/C=C/C(C)C)cc2)cc1OC [Compound 142] | + (compound exhibited 0-25% inhibition of calcium ion influx induced by capsaicin stimulation)
CCC/C=C/c1ccc(C(=O)NCCC)cc1 [Compound 198] | ++ (compound exhibited 25-50% inhibition of calcium ion influx induced by capsaicin stimulation)
CCN(CC)c1ccc(NC(=O)c2ccc(/C=C/C(C)C)cc2)cc1 [Compound 130] | +++ (compound exhibited 50-75% inhibition of calcium ion influx induced by capsaicin stimulation)
CC(C)(C)/C=C/c1ccc(C(=O)Nc2ccnc(Cl)c2)cc1 [Compound 76] | ++++ (compound exhibited 75% or greater inhibition of calcium ion influx induced by capsaicin stimulation)
CCC/C=C/c1ccc(C(=O)NCC)cc1 [Compound 223] | +++ (compound exhibited 50-75% inhibition of calcium ion influx induced by capsaicin stimulation)

SMILES | inhibition of calcium ion influx induced by capsaicin stimulation
CC(C)(C)/C=C/c1ccc(C(=O)NCc2cccs2)cc1 [Compound 29] | + (compound exhibited 0-25% inhibition of calcium ion influx induced by capsaicin stimulation)
CCC(C)(C)NC(=O)c1ccc(/C=C/C(C)C)cc1 [Compound 164] | + (compound exhibited 0-25% inhibition of calcium ion influx induced by capsaicin stimulation)
COc1ccccc1CNC(=O)c1ccc(/C=C/C(C)C)cc1 [Compound 87] | + (compound exhibited 0-25% inhibition of calcium ion influx induced by capsaicin stimulation)
CC(C)/C=C/c1ccc(C(=O)NC(c2ccccc2)c2ccccc2)cc1 [Compound 95] | ++ (compound exhibited 25-50% inhibition of calcium ion influx induced by capsaicin stimulation)
CCC/C=C/c1ccc(C(=O)NC(C)(C)CO)cc1 [Compound 218] | + (compound exhibited 0-25% inhibition of calcium ion influx induced by capsaicin stimulation)
CC(C)(C)/C=C/c1ccc(C(=O)Nc2ncc(C(F)(F)F)cc2Cl)cc1 [Compound 71] | + (compound exhibited 0-25% inhibition of calcium ion influx induced by capsaicin stimulation)
CC(C)(C)/C=C/c1ccc(C(=O)Nc2ccccc2CCO)cc1 [Compound 39] | ++++ (compound exhibited 75% or greater inhibition of calcium ion influx induced by capsaicin stimulation)
CCC/C=C/c1ccc(C(=O)NC2CCCC2)cc1 [Compound 214] | + (compound exhibited 0-25% inhibition of calcium ion influx induced by capsaicin stimulation)
CC(C)/C=C/c1ccc(C(=O)NCCc2ccc(S(N)(=O)=O)cc2)cc1 [Compound 116] | + (compound exhibited 0-25% inhibition of calcium ion influx induced by capsaicin stimulation)
Cc1cc(C)nc(NC(=O)c2ccc(/C=C/C(C)(C)C)cc2)c1 [Compound 48] | ++ (compound exhibited 25-50% inhibition of calcium ion influx induced by capsaicin stimulation)
CC(C)/C=C/c1ccc(C(=O)NCc2cccc(F)c2)cc1 [Compound 143] | + (compound exhibited 0-25% inhibition of calcium ion influx induced by capsaicin stimulation)
CC(C)/C=C/c1ccc(C(=O)NCCc2c[nH]c3ccccc23)cc1 [Compound 123] | + (compound exhibited 0-25% inhibition of calcium ion influx induced by capsaicin stimulation)
CC(C)(C)/C=C/c1ccc(C(=O)Nc2ccc(C(C)(C)C)cc2)cc1 [Compound 40] | +++ (compound exhibited 50-75% inhibition of calcium ion influx induced by capsaicin stimulation)
CCN(CC)c1ccc(NC(=O)c2ccc(/C=C/C(C)(C)C)cc2)cc1 [Compound 62] | ++++ (compound exhibited 75% or greater inhibition of calcium ion influx induced by capsaicin stimulation)
CC(C)/C=C/c1ccc(C(=O)Nc2ccc3[nH]ccc3c2)cc1 [Compound 158] | ++ (compound exhibited 25-50% inhibition of calcium ion influx induced by capsaicin stimulation)
CCC/C=C/c1ccc(C(=O)NCCCCC)cc1 [Compound 193] | ++ (compound exhibited 25-50% inhibition of calcium ion influx induced by capsaicin stimulation)
COc1cc(CNC(=O)c2ccc(/C=C/C(C)C)cc2)cc(OC)c1OC [Compound 117] | + (compound exhibited 0-25% inhibition of calcium ion influx induced by capsaicin stimulation)
CC(C)(C)/C=C/c1ccc(C(=O)NC(C)(C)c2ccccc2)cc1 [Compound 26] | + (compound exhibited 0-25% inhibition of calcium ion influx induced by capsaicin stimulation)
CC(C)/C=C/c1ccc(C(=O)NCc2ccncc2)cc1 [Compound 93] | + (compound exhibited 0-25% inhibition of calcium ion influx induced by capsaicin stimulation)

Each molecule was assayed against VR1 (Rattus norvegicus, UniProt O35433) (assay: Calcium imaging assay: inhibition of capsaicin induced calcium influx in DRG neurons (Fura2, microscope)). Conditions: capsaicin stimulation; class symbols per legend.
Type: cell-based
Parameters: endogenous in cells; host or cells: DRG neurons
Protocol: VR1 protein is a heat-gated cation channel that […] resulting in neuronal membrane depolarization and elevated intracellular calcium levels. Therefore the functional activity of compounds at the VR1 receptor may be determined by measuring changes in intracellular calcium levels in neurons such as the dorsal root ganglion.
DRG neurons were grown on PDL coated 96-well black-walled plates, in the presence of DMEM medium containing 5% Penstrep, 5% Glutamax, 200 μg/ml hygromycin, 5 μg/ml blasticide and 10% heat inactivated FBS. Prior to assay, cells were loaded with 5 μg/ml Fura2 in normal saline solution at 37° C for 40 minutes. Cells were then washed with normal saline to remove dye before commencement of the experiment.
The plated neurons were transferred into a chamber on the stage of a Nikon eclipse TE300 microscope after which neurons were allowed to attain a stable fluorescence for about 10 minutes before beginning the experiment. The assay consists of two stages, a pretreatment phase followed by a treatment phase. First, a solution of the test compound was added from a multivalve perfusion system to the cells for 1 minute (pretreatment). Immediately following, capsaicin (250 nM) was added in the presence of the test compound (treatment) for a specific period between 20 and 60 seconds.
Fura2 was excited at […] to indicate relative calcium ion concentration. Changes in wavelength measurements were made throughout the course of the experiment. The fluorescence ratio was calculated by dividing fluorescence measured at 340 nm by that at 380 nM. Data was collected using Intelligent Imaging’s Slidebook software. All compounds that inhibited capsaicin induced calcium influx greater than 75% were considered positives.
Fluorescence reflecting calcium ion influx is reduced.

Chain of VR1 (Rattus norvegicus, UniProt O35433) (O35433 whole entry): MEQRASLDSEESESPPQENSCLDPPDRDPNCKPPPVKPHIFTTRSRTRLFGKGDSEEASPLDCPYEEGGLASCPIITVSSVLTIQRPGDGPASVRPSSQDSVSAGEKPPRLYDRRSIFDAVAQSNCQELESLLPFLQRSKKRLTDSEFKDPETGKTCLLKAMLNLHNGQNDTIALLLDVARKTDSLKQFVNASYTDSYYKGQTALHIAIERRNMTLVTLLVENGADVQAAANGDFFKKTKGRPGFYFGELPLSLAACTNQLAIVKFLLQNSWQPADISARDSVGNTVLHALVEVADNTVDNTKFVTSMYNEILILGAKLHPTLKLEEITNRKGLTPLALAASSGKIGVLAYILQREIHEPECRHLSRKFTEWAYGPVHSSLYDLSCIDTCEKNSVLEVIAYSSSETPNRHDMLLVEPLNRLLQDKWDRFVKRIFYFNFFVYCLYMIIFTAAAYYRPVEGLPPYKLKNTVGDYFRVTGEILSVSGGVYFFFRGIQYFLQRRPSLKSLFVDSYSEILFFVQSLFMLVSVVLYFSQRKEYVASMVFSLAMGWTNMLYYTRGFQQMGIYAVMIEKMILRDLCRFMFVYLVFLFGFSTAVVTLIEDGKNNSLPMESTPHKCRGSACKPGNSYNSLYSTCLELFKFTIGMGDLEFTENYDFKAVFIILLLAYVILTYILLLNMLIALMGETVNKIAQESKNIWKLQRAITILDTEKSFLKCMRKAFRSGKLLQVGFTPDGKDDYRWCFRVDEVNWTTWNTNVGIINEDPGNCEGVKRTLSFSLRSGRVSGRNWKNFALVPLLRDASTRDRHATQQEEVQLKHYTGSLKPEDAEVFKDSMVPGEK

SMILES | inhibition of calcium ion influx induced by capsaicin stimulation
COc1ccc(NC(=O)c2ccc(C#CC(C)(C)C)cc2)cn1 [Compound 385] | ++++ (compound exhibited 75% or greater inhibition of calcium ion influx induced by capsaicin stimulation)
CC(C)(C)C#Cc1ccc(C(=O)Nc2cccc(C(F)(F)F)c2)cc1 [Compound 374] | ++++ (compound exhibited 75% or greater inhibition of calcium ion influx induced by capsaicin stimulation)
CC(C)(C)C#Cc1ccc(C(=O)Nc2ccc(Cl)c(C(F)(F)F)c2)cc1 [Compound 368] | ++++ (compound exhibited 75% or greater inhibition of calcium ion influx induced by capsaicin stimulation)
